Literature values as cited in patent US7232830B2, “Method for treatment of neurodegenerative diseases and effects of aging” (priority 1998, dated 2007).
Where a name gives a salt, the structure may show the parent alone.

Assays:
[1] = tested on: histamine metabolism in the mouse brain
MAO-B = biological target: T1, MAO-B (Rattus norvegicus, UniProt P19643); details: in vitro, rat brain
T1 construct: in vitro on monoamine oxidase activity in the rat brain; host or cells: rat brain
T1 sequence (P19643 1-520): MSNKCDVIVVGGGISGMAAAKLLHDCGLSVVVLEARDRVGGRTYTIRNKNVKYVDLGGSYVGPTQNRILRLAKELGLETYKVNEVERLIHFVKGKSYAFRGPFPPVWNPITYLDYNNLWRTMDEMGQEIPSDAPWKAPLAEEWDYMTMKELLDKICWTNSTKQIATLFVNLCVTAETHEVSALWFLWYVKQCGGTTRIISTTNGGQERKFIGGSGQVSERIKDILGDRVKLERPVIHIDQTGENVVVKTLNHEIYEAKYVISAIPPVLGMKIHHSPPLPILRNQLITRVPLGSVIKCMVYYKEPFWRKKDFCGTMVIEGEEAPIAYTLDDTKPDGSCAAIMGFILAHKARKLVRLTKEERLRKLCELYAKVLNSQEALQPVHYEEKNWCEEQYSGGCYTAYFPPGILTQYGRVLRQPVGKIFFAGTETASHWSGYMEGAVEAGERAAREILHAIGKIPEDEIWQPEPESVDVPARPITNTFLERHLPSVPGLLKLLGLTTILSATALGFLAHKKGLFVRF

SMILES	effect on a histidine decarboxylase inhibitor [1]	effect on histamine increase induced by a histamine N-methyltransferase inhibitor [1]	effect on MAO-B (MAO-B)
COC(=O)[C@H]1[C@H]2C[C@@H]3c4[nH]c5cc(OC)ccc5c4CCN3C[C@H]2C[C@@H](OC(=O)c2cc(OC)c(OC)c(OC)c2)[C@@H]1OC [reserpine]	no significant affect	inhibited the histamine increase	
S=C(NC1CCCCC1)N1CCC(c2cnc[nH]2)CC1 [thioperamide maleate]			inhibits MAO-B
